The source of these data is patent publication US20260226497A1, “TRANSGENIC MAIZE EVENT MON 87427” (Monsanto Technology LLC, priority 2009, published 2026).

The test system of the data set is event MON 87427 hybrids. The class given is in vivo, maize. Particulars: two successive sprays at 2.25 lb a.e./acre each. The source says: This illustrates that the F1 hybrid plants from event MON 87427 crosses are fully tolerant to glyphosate when used for weed control.

For `O=C(O)CNCP(=O)(O)O` [glyphosate, N-phosphonomethylglycine], the “injury or male fertility compared with NK603 hybrid” value is “no difference was observed in injury or male fertility”.
